Test results published in patent US20070060549A1, “COMBINATION THERAPIES EMPLOYING ACE INHIBITORS AND USES THEREOF FOR THE TREATMENT OF DIABETIC DISORDERS” (priority 2004, published 2007).

Experiments:
rat = assay: Acute toxicity evaluation of P5P in the rat; type: in vivo; conditions: doses up to 5 g/kg
Method: (§1) As a prelude to human clinical studies, the toxicology of P5P was assessed by conventional means using two animal species, rats and dogs. […] Long term studies, 13-week oral toxicity in dogs, and 26-week oral toxicity in rats, were completed.

dogs [1] = assay: 13-week oral toxicity in dogs; type: in vivo; conditions: 13-week dog study
Method: as §1

dogs [2] = assay: Acute toxicity evaluation of P5P in dogs; type: in vivo, dog; conditions: doses up to 100 mg/kg
Method: as §1

rats [3] = assay: 26-week oral toxicity in rats; type: in vivo; conditions: 26-week rat study
Method: as §1

rats [4] = assay: 14-day oral administration of P5P to rats; type: in vivo, rat; conditions: orally 50 mg/kg for 14 days
Method: as §1

[5] = test system: diabetic hypertensive patients; assay: Phase II clinical study of P5P: glycated hemoglobin (HbA1c); type: in vivo, human; conditions: patients with clinically elevated HbA1c at start; 250, 500, 750 mg P5P two weeks each, then 4-week washout
Method: In a phase II clinical study, conducted in accordance with generally accepted clinical practice standards, diabetic hypertensive patients were treated with P5P. Glucose control was determined by measuring glycated hemoglobin levels (HbA1c). Four weeks prior to treatment, patients ceased all antihypertensive therapy. Following the washout period, baseline HbA1c measurements were taken. Patients were than treated with 250 mg, 500 mg, and 750 mg of P5P for two weeks at each dosage. P5P treatment was then discontinued for 4 weeks. Following the washout period, HbA1c measurements were taken.

patients [6] = assay: Phase I single dose tolerance study of P5P; type: in vivo, human
Method: (§2) In a Phase I single dose tolerance study, conducted in accordance with generally accepted clinical practice standards, groups of six patients were tested at 15 mg/kg, 30 mg/kg, and 60 mg/kg (enteric coated tablets). […] Four subjects in the 60 mg/kg dose group reported a total of 10 adverse events including diarrhea, bradycardia, bubbly stomach, flatulence, and headaches that were mild in severity.

[7] = Phase I pharmacokinetics of P5P; type: in vivo, human; conditions: Phase I dose levels; small numbers of subjects, large inter-subject variability
Method: as §2

patients [8] = assay: Phase I multi-dose tolerance study of P5P; type: in vivo, human
[9] = test system: hypertensive patients with type 2 diabetes; conditions: 8 weeks
Method: Summary of Study Design—The phase II study was a randomized, parallel group, cross-over, double-blinded to study medication, placebo-controlled comparison of P5P BID at total daily doses of 100, 300 or 1000 mg alone and in combination with 20 mg lisinopril given once daily (QD). In order to protect against antihypertensive and metabolic carry-over effects of lisinopril, 160 patients were randomized in 2 different treatment sequences. Patients randomized in the first treatment sequence received an 8-week treatment with lisinopril 20 mg and P5P (or placebo) and then an 8-week treatment with P5P alone (or placebo). […]
Mean trough sitting and standing BP were measured at each visit. […]
Ambulatory blood pressure (ABP) was measured using a SpaceLabs Medical ABPM Monitor Model 90207 (SpaceLabs Medical Inc., Redmond, Wash.). […] Following the initiation of two manual readings, a third manual reading was initiated and began the 24-hour monitoring period. […] A manual reading was initiated at the end of the 24-hour period to ensure that there was at least one data point in the last hour of the 24-hour period. Subjects were instructed to initiate a manual reading should they be late for their scheduled clinic appointment to ensure that a reading in the last hour of the 24-hour period was not missed. On completion of the readings, the ABPM device was removed from the subject. […]

| SMILES | acute toxicity (rat) | drug related toxicities (dogs [1]; 10 and 25 mg/kg) | recovery (dogs [1]; 50-60 mg/kg group, recovery phase) | findings in high dose group (dogs [1]; 50-60 mg/kg, all other findings mild to moderate) | acute toxicity (dogs [2]) | findings of toxicological significance (rats [3]; any dose level (50, 100/175, 175/325 mg/kg)) | findings in high dose group (rats [3]; high dose group) | signs of toxicity (rats [4]) | reduction in HbA1c levels as compared to baseline [5] [%] | adverse events (patients [6]; single dose 15 mg/kg, enteric coated tablets, six patients) | adverse events (patients [6]; single dose 30 mg/kg, enteric coated tablets, six patients) | subjects reporting adverse events (patients [6]; single dose 60 mg/kg, enteric coated tablets, six patients) | total adverse events (patients [6]; single dose 60 mg/kg, diarrhea, bradycardia, bubbly stomach, flatulence, headaches, mild in severity) | dose-linearity of pharmacokinetics [7] | tolerance (patients [8]; multi-dose 30 mg/kg, one patient withdrew due to vomiting and diarrhea) | tolerance (patients [8]; multi-dose 60 mg/kg) | reduction in MDASBP from baseline ([9]; lisinopril 20 mg/dose and placebo, p=0.002) [mmHg] | reduction in MDADBP from baseline ([9]; lisinopril 20 mg/dose plus placebo, p=0.005) [mmHg] |
| --- | --- | --- | --- | --- | --- | --- | --- | --- | --- | --- | --- | --- | --- | --- | --- | --- | --- | --- |
| Cc1ncc(COP(=O)(O)O)c(C=O)c1O [P5P, pyridoxal-5′-phosphate] | no significant toxicity | no drug related toxicities were observed | recovered almost completely | anorexia and body weight loss | no significant toxicity | No findings of toxicological significance | reversible reduction in body weight gain and increased incidence of stomach microulcers | no signs of toxicity | 5.4 | No adverse events were reported | One subject in the 30 mg/kg dose group experienced events of dizziness and sleepiness | Four | 10 | did not demonstrate dose-linearity | five of six patients treated with 30 mg/kg P5P tolerated the medication well | all 6 treated patients experiencing a variety of mild gastrointestinal symptoms |  |  |
| NCCCC[C@H](N[C@@H](CCc1ccccc1)C(=O)O)C(=O)N1CCC[C@H]1C(=O)O [lisinopril] |  |  |  |  |  |  |  |  |  |  |  |  |  |  |  |  | 7.5 | 4.1 |
